Test results from the supplement of paper PMC11451515.

Columns and labels:
Conditions in all cases: 48 h
NOMO1 [1] = assay: cell viability relative to DMSO control; higher = less cytotoxic
How it was run: (§1)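 NOMO1 or SEM (500 cells/well) or P12-Ichikawa (1000 cells/well) leukemia cells were adapted for at least four passages in each medium. They were seeded in 1536-well plates (5 μl) and pin-dosed with library compounds in DMSO over an 11-point threefold series, 47 μM to 0.79 nM. CellTiter-Glo One luminescence was read after 48 h at 37°C. Viability is the per-plate percentage relative to DMSO wells, with cell-free wells as background.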

P12-Ichikawa [2] = assay: as above
How it was run: as §1

SEM cells [3] = assay: as above
How it was run: as §1

NOMO1 [4] = assay: AUC of viability dose-response curve (% viability x log10 dose units); higher = less sensitive
How it was run: (§2)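 Leukemia cells adapted to each medium were seeded at 500 or 1000 cells/well in 1536-well plates and dosed with library compounds in DMSO at 11 threefold doses from 47 μM to 0.79 nM for 48 h at 37°C. CellTiter-Glo One luminescence was normalised per plate to DMSO and cell-free wells, then fitted with a four-parameter log-logistic model over log10 doses. Area under the curve was taken from this fit by the trapezoidal rule, with curves above full viability scaled and curves failing quality control removed.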

P12-Ichikawa [5] = assay: as above
How it was run: as §2

SEM cells [6] = assay: as above
How it was run: as §2

Cc1c(OCC(F)(F)F)ccnc1C[S+]([O-])c1nc2ccccc2[nH]1 (centres undefined)
cell viability [%]
Conditions	NOMO1 [1]	P12-Ichikawa [2]	SEM cells [3]
HPLM + 10% dialyzed FBS, 0.000781 µM	100	99.9	96.5
HPLM + 10% dialyzed FBS, 0.00234 µM	100	111	93.5
HPLM + 10% dialyzed FBS, 0.00702 µM	107	109	96.4
HPLM + 10% dialyzed FBS, 0.0211 µM	96.6	105	97.1
HPLM + 10% dialyzed FBS, 0.0632 µM	108	108	99
HPLM + 10% dialyzed FBS, 0.19 µM	118	113	99.9
HPLM + 10% dialyzed FBS, 0.569 µM	122	113	106
HPLM + 10% dialyzed FBS, 1.71 µM	97.7	112	117
HPLM + 10% dialyzed FBS, 5.12 µM	113	118	106
HPLM + 10% dialyzed FBS, 15.4 µM	122	112	104
HPLM + 10% dialyzed FBS, 46.1 µM	110	107	125
RPMI 5 mM glucose + 10% FBS, 0.000781 µM	110	99	116
RPMI 5 mM glucose + 10% FBS, 0.00234 µM	114	100	110
RPMI 5 mM glucose + 10% FBS, 0.00702 µM	105	98.2	99.7
RPMI 5 mM glucose + 10% FBS, 0.0211 µM	113	94	107
RPMI 5 mM glucose + 10% FBS, 0.0632 µM	105	106	105
RPMI 5 mM glucose + 10% FBS, 0.19 µM	108	115	126
RPMI 5 mM glucose + 10% FBS, 0.569 µM	119	108	111
RPMI 5 mM glucose + 10% FBS, 1.71 µM	103	112	124
RPMI 5 mM glucose + 10% FBS, 5.12 µM	118	114	115
RPMI 5 mM glucose + 10% FBS, 15.4 µM	108	101	104
RPMI 5 mM glucose + 10% FBS, 46.1 µM	117	102	101
RPMI 5 mM glucose + 10% dialyzed FBS, 0.000781 µM	102	102	97.7
RPMI 5 mM glucose + 10% dialyzed FBS, 0.00234 µM	111	102	109
RPMI 5 mM glucose + 10% dialyzed FBS, 0.00702 µM	111	102	112
RPMI 5 mM glucose + 10% dialyzed FBS, 0.0211 µM	109	111	111
RPMI 5 mM glucose + 10% dialyzed FBS, 0.0632 µM	113	104	109
RPMI 5 mM glucose + 10% dialyzed FBS, 0.19 µM	113	103	122
RPMI 5 mM glucose + 10% dialyzed FBS, 0.569 µM	115	110	112
RPMI 5 mM glucose + 10% dialyzed FBS, 1.71 µM	120	112	121
RPMI 5 mM glucose + 10% dialyzed FBS, 5.12 µM	128	108	131
RPMI 5 mM glucose + 10% dialyzed FBS, 15.4 µM	113	111	121
RPMI 5 mM glucose + 10% dialyzed FBS, 46.1 µM	123	96.2	97.7

AUC of viability dose-response curve
Conditions	NOMO1 [4]	P12-Ichikawa [5]	SEM cells [6]
HPLM + 10% dialyzed FBS	456	466	420
RPMI 5 mM glucose + 10% FBS	469	459	475
RPMI 5 mM glucose + 10% dialyzed FBS	448	471	453

COC(=O)N[C@H](C(=O)N[C@@H](Cc1ccccc1)[C@@H](O)CN(Cc1ccc(-c2ccccn2)cc1)NC(=O)[C@@H](NC(=O)OC)C(C)(C)C)C(C)(C)C
cell viability [%]
Conditions	NOMO1 [1]	P12-Ichikawa [2]	SEM cells [3]
HPLM + 10% dialyzed FBS, 0.000781 µM	–	118	–
HPLM + 10% dialyzed FBS, 0.00234 µM	–	107	–
HPLM + 10% dialyzed FBS, 0.00702 µM	–	102	–
HPLM + 10% dialyzed FBS, 0.0211 µM	–	107	–
HPLM + 10% dialyzed FBS, 0.0632 µM	–	124	–
HPLM + 10% dialyzed FBS, 0.19 µM	–	118	–
HPLM + 10% dialyzed FBS, 0.569 µM	–	102	–
HPLM + 10% dialyzed FBS, 1.71 µM	–	105	–
HPLM + 10% dialyzed FBS, 5.12 µM	–	107	–
HPLM + 10% dialyzed FBS, 15.4 µM	–	101	–
HPLM + 10% dialyzed FBS, 46.1 µM	–	25.4	–
RPMI 5 mM glucose + 10% FBS, 0.000781 µM	101	102	103
RPMI 5 mM glucose + 10% FBS, 0.00234 µM	105	117	123
RPMI 5 mM glucose + 10% FBS, 0.00702 µM	113	116	152
RPMI 5 mM glucose + 10% FBS, 0.0211 µM	100	107	111
RPMI 5 mM glucose + 10% FBS, 0.0632 µM	106	112	136
RPMI 5 mM glucose + 10% FBS, 0.19 µM	103	117	110
RPMI 5 mM glucose + 10% FBS, 0.569 µM	114	114	122
RPMI 5 mM glucose + 10% FBS, 1.71 µM	110	116	110
RPMI 5 mM glucose + 10% FBS, 5.12 µM	111	122	128
RPMI 5 mM glucose + 10% FBS, 15.4 µM	97.8	113	116
RPMI 5 mM glucose + 10% FBS, 46.1 µM	93.4	108	96.7
RPMI 5 mM glucose + 10% dialyzed FBS, 0.000781 µM	112	98.9	101
RPMI 5 mM glucose + 10% dialyzed FBS, 0.00234 µM	102	111	118
RPMI 5 mM glucose + 10% dialyzed FBS, 0.00702 µM	114	112	136
RPMI 5 mM glucose + 10% dialyzed FBS, 0.0211 µM	116	113	123
RPMI 5 mM glucose + 10% dialyzed FBS, 0.0632 µM	113	113	132
RPMI 5 mM glucose + 10% dialyzed FBS, 0.19 µM	103	107	131
RPMI 5 mM glucose + 10% dialyzed FBS, 0.569 µM	97.3	103	110
RPMI 5 mM glucose + 10% dialyzed FBS, 1.71 µM	101	99.2	113
RPMI 5 mM glucose + 10% dialyzed FBS, 5.12 µM	110	94.7	122
RPMI 5 mM glucose + 10% dialyzed FBS, 15.4 µM	101	98.2	123
RPMI 5 mM glucose + 10% dialyzed FBS, 46.1 µM	94.9	86.4	79.9

AUC of viability dose-response curve
Conditions	NOMO1 [4]	P12-Ichikawa [5]	SEM cells [6]
HPLM + 10% dialyzed FBS	388	455	464
RPMI 5 mM glucose + 10% FBS	470	467	457
RPMI 5 mM glucose + 10% dialyzed FBS	453	451	469
